Measured values taken from US20220220125A1, “FUSED ISOINDOLIN-1-ONE DERIVATIVES USEFUL AS GRK2 INHIBITORS” (Janssen Pharmaceutica NV, priority 2019, published 2022).

What follows are compounds tested against T1, GRK2 (Homo sapiens, UniProt P25098) (assay: hGRK2 LANCE Ultra in vitro kinase assay). Conditions: 10 nM GRK2; ATP 30 or 600 μM (not stated which); read-out: GRK2 Lancer IC50.
T1 sequence (P25098 1-689): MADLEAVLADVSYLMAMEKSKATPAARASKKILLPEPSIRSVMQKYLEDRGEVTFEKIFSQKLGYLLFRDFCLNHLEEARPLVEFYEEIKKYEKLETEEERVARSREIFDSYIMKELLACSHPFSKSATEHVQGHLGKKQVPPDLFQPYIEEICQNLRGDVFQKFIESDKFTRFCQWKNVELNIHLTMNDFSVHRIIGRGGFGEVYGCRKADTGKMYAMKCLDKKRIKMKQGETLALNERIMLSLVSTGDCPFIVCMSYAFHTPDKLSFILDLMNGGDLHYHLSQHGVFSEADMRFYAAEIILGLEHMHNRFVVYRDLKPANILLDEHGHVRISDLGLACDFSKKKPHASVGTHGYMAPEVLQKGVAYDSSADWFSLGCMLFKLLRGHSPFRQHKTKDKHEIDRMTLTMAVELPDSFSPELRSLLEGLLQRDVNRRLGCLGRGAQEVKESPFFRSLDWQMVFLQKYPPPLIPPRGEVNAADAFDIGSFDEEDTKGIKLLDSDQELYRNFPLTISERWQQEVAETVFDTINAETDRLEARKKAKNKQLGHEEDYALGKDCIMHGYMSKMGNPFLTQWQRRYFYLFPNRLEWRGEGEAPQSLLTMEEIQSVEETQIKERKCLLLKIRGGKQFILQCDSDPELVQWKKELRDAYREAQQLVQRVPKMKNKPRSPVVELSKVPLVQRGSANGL
Assay type: biochemical
Description: hGRK2 LANCER In Vitro Assay
This assay is sensitive and requires as low as 10 nM enzyme, in a total volume of 10 μL. In addition, the ATP concentration can be varied over a broad range, without interfering with the assay or changing the assay condition. […] Testing inhibitors routinely at both high and low ATP concentrations also enables identification of potential non-ATP competitive inhibitors.
This assay measures IC50 values of test compounds (inhibitors) by monitoring GRK2 enzymatic activity at varying inhibitor concentrations.
Test compounds were dissolved in DMSO at 1 mM and were 3-fold serial diluted. The compound DMSO solutions were then added (100 nL) into a plate well using an acoustic dispenser. To each well was then added 20 nM GRK2 (5 μL) in assay buffer (20 mM HEPES, pH 7.5, 10 mM MgCl2, 0.001% Tween-20). The plate was sealed and centrifuged at 1000 rpm for 1 min. The plate and wells containing a mixture of GRK2 and test compound were incubated at ambient temperature for 30 min (prior to initializing the enzymatic reaction).
Enzyme reactions were initiated by the addition of 4.9 μL Substrates/Eu-Ab mix to each well. […] Final concentrations of reagents in the assays were as follows: 20 mM HEPES, pH 7.5; 10 mM MgCl2; 0.001% Tween-20 (w/v); 30 or 600 μM ATP; 200 nM ULight-peptide; 4 nM Eu-Ab; 10 nM GRK2; and 1% DMSO.
The plates were sealed and centrifuged at 1000 rpm for 1 min. For reactions at low ATP concentration (30 μM), reaction mixtures were incubated at ambient temperature for 120 min. For reactions at high ATP concentration (600 μM), reaction mixtures were incubated at ambient temperature for 60 min.
The enzyme reactions were quenched by addition of 10 μL of 12 mM EDTA in 1× LANCE detection solution to each well. The plates were then incubated at ambient temperature for 30 min. Time-resolved fluorescence signal of reactions were read on an EnVision or PHERAstar plate reader with the following parameters: Excitation wavelength=337 nm, emission wavelength (donor)=620 nm; emission wavelength (acceptor)=665 nm.
The raw HTRF data were converted to % active as follows:
% active=(sample−NC)/(PC−NC)*100
where NC is the mean of negative control (reactions without GRK2), and PC is the mean of positive control (reactions with GRK2 but without inhibitor). IC50 values were determined from a 4-parameter fit, using the following equation:
Y=Bottom+(Top−Bottom)/(1+10^((Log IC50-X)*Hill slope)),
where X=log10 of the compound concentration.

Structure (SMILES) | IC50 [nM]
COc1cccc([C@H]2COC/C=C\CC3c4ccc(-c5cn[nH]c5)cc4C(=O)N32)c1 (mixture of isomers) [Compound 8] | 166
COc1cccc([C@H]2COCCCCC3c4ccc(-c5cn[nH]c5)cc4C(=O)N32)c1 (mixture of isomers) [Compound 9] | 1400
O=C1c2cc(-c3cn[nH]c3)ccc2C2CCCCC(c3cccc(O)c3)N12 (single isomer, unassigned) [Compound 2, (7S*)-7-(3-hydroxyphenyl)-3-(1H-pyrazol-4-yl)-7,8,9,10,11,11a-hexahydro-5H-azepino[2,1-a]isoindol-5-one] | 8
COc1cccc(C2CCCCC3c4ccc(-c5cn[nH]c5)cc4C(=O)N23)c1 (single isomer, unassigned) [Compound 1, (7R*)-7-(3-methoxyphenyl)-3-(1H-pyrazol-4-yl)-7,8,9,10,11,11a-hexahydro-5H-azepino[2,1-a]isoindol-5-one] | < 5
COc1cc(F)cc(C2CCCCC3c4ccc(-c5cn[nH]c5)cc4C(=O)N23)c1 (stereo not drawn) [Compound 7] | 24
COc1cccc(N2CCCCC3c4ccc(-c5cn[nH]c5)cc4C(=O)N32)c1 (racemic) [Compound 15, (Rac)-1-(3-methoxyphenyl)-8-(1H-pyrazol-4-yl)-1,2,3,4,5,5a-hexahydro-10H-[1,2]diazepino[7,1-a]isoindol-10-one] | 6
COc1cccc(C2CCCCC3c4ccc(-c5cn[nH]c5)cc4C(=O)N23)c1 (single isomer, unassigned) [Compound 5] | 11
COc1cccc(N2CC=CCC3c4ccc(-c5cn[nH]c5)cc4C(=O)N32)c1 (racemic) [Compound 16, 1-(3-methoxyphenyl)-8-(1H-pyrazol-4-yl)-1,2,5,5a-tetrahydro-10H-[1,2]diazepino[7,1-a]isoindol-10-one] | 8
COc1cc(F)cc(C2CCCCC3c4ccc(-c5cn[nH]c5)cc4C(=O)N23)c1 (stereo not drawn) [Compound 4] | 9
COc1cccc(C2CCCCC3c4ccc(-c5cn[nH]c5)cc4C(=O)N23)c1 (single isomer, unassigned) [Compound 3, (7S*)-7-(3-methoxyphenyl)-3-(1H-pyrazol-4-yl)-7,8,9,10,11,11a-hexahydro-5H-azepino[2,1-a]isoindol-5-one] | 9
O=C1c2cc(-c3cn[nH]c3)ccc2C2CCCCC(c3cccc(O)c3)N12 (single isomer, unassigned) [Compound 6, (7R*)-7-(3-hydroxyphenyl)-3-(1H-pyrazol-4-yl)-7,8,9,10,11,11a-hexahydro-5H-azepino[2,1-a]isoindol-5-one] | 12
COc1cccc([C@H]2COC/C=C\CC3c4ccc(-c5cn[nH]c5)nc4C(=O)N32)c1 (mixture of isomers) [Compound 14] | 1010
